Test: cn = amount concentration of the nth substance listed, in mol/dm3
Conditions: 101 kPa, Liquid, Advanced Conductivity Orion 162A

CCCC[N+](CCCC)(CCCC)CCCC.O=C([O-])C(F)(F)C(F)(F)C(F)(F)C(F)(F)C(F)(F)C(F)(F)C(F)(F)F [tetrabutylammonium perfluorooctanoate] + O
Conditions	electrical conductivity [S/m]
283.1 K, c1 = 0.000329	0.00105
283.1 K, c1 = 0.000649	0.0019
283.1 K, c1 = 0.000962	0.00271
283.1 K, c1 = 0.001266	0.00351
283.1 K, c1 = 0.001562	0.00431
283.1 K, c1 = 0.001852	0.00505
283.1 K, c1 = 0.002134	0.00579
283.1 K, c1 = 0.00241	0.00643
283.1 K, c1 = 0.002678	0.00707
283.1 K, c1 = 0.002941	0.00749
283.1 K, c1 = 0.003198	0.00762
283.1 K, c1 = 0.003448	0.0077
283.1 K, c1 = 0.003814	0.00782
283.1 K, c1 = 0.004167	0.00793
283.1 K, c1 = 0.004508	0.00803
283.1 K, c1 = 0.004839	0.00812
283.1 K, c1 = 0.005159	0.00821
283.1 K, c1 = 0.005469	0.00831
288.15 K, c1 = 0.000247	0.00099
288.15 K, c1 = 0.000488	0.00175
288.15 K, c1 = 0.000723	0.00249
288.15 K, c1 = 0.000952	0.0032
288.15 K, c1 = 0.001176	0.00389
288.15 K, c1 = 0.001395	0.00457
288.15 K, c1 = 0.001609	0.00521
288.15 K, c1 = 0.001818	0.00582
288.15 K, c1 = 0.00202	0.00641
288.15 K, c1 = 0.002222	0.00704
288.15 K, c1 = 0.002418	0.00756
288.15 K, c1 = 0.002609	0.00796
288.15 K, c1 = 0.002796	0.00811
288.15 K, c1 = 0.002979	0.00819
288.15 K, c1 = 0.003246	0.0083
288.15 K, c1 = 0.003505	0.00839
288.15 K, c1 = 0.003838	0.00852
288.15 K, c1 = 0.004158	0.00863
288.15 K, c1 = 0.004466	0.00873
288.15 K, c1 = 0.004906	0.00888
288.15 K, c1 = 0.005321	0.00902
293.15 K, c1 = 0.000263	0.00116
293.15 K, c1 = 0.000519	0.0021
293.15 K, c1 = 0.000769	0.00299
293.15 K, c1 = 0.001013	0.00386
293.15 K, c1 = 0.00125	0.00471
293.15 K, c1 = 0.001481	0.00552
293.15 K, c1 = 0.001707	0.00626
293.15 K, c1 = 0.001928	0.00699
293.15 K, c1 = 0.002143	0.0077
293.15 K, c1 = 0.002353	0.00829
293.15 K, c1 = 0.002558	0.0085
293.15 K, c1 = 0.002759	0.00862
293.15 K, c1 = 0.002954	0.00871
293.15 K, c1 = 0.00324	0.00884
293.15 K, c1 = 0.003516	0.00895
293.15 K, c1 = 0.003784	0.00907
293.15 K, c1 = 0.004042	0.0092
293.15 K, c1 = 0.004375	0.00931
293.15 K, c1 = 0.004694	0.00944
293.15 K, c1 = 0.005	0.00956
298.15 K, c1 = 0.000248	0.00124
298.15 K, c1 = 0.00049	0.00229
298.15 K, c1 = 0.000728	0.0033
298.15 K, c1 = 0.000962	0.0043
298.15 K, c1 = 0.00119	0.00528
298.15 K, c1 = 0.001415	0.00618
298.15 K, c1 = 0.001636	0.00703
298.15 K, c1 = 0.001852	0.00789
298.15 K, c1 = 0.002064	0.00869
298.15 K, c1 = 0.002273	0.00907
298.15 K, c1 = 0.002477	0.00916
298.15 K, c1 = 0.002728	0.00927
298.15 K, c1 = 0.003094	0.00944
298.15 K, c1 = 0.003448	0.00959
298.15 K, c1 = 0.003814	0.00976
298.15 K, c1 = 0.004167	0.00992
298.15 K, c1 = 0.004592	0.01011
298.15 K, c1 = 0.005	0.01028
303.15 K, c1 = 0.000263	0.00148
303.15 K, c1 = 0.000519	0.00267
303.15 K, c1 = 0.000769	0.00383
303.15 K, c1 = 0.001013	0.00497
303.15 K, c1 = 0.00125	0.0061
303.15 K, c1 = 0.001481	0.00717
303.15 K, c1 = 0.001707	0.00814
303.15 K, c1 = 0.001928	0.00909
303.15 K, c1 = 0.002143	0.00964
303.15 K, c1 = 0.002353	0.00979
303.15 K, c1 = 0.002558	0.00989
303.15 K, c1 = 0.002759	0.00998
303.15 K, c1 = 0.002954	0.01005
303.15 K, c1 = 0.00324	0.01016
303.15 K, c1 = 0.003516	0.01026
303.15 K, c1 = 0.003784	0.01035
303.15 K, c1 = 0.004042	0.01044
303.15 K, c1 = 0.004375	0.01055
303.15 K, c1 = 0.004694	0.01065
308.15 K, c1 = 0.000309	0.00189
308.15 K, c1 = 0.00061	0.0034
308.15 K, c1 = 0.000904	0.00484
308.15 K, c1 = 0.00119	0.00633
308.15 K, c1 = 0.00147	0.00774
308.15 K, c1 = 0.001744	0.00909
308.15 K, c1 = 0.002011	0.01001
308.15 K, c1 = 0.002273	0.01017
308.15 K, c1 = 0.002423	0.01022
308.15 K, c1 = 0.002578	0.01026
308.15 K, c1 = 0.002728	0.0103
308.15 K, c1 = 0.002876	0.01034
